The IC50 is the concentration at which inhibition is half-maximal.

The values that follow come from patent publication US6083959A, “Quinoline derivatives, processes for their preparation and their use as medicaments” (Fujisawa Pharmaceutical Co., Ltd., priority 1996, dated 2000).

For the test, the target named is T1, Bradykinin Receptor (Cavia porcellus, UniProt O70526).
T1 construct: The ileum was removed and homogenized in buffer; from tissue; host or cells: guinea pig (male Hartley strain) ileum, crude membrane
T1 sequence (O70526 1-372): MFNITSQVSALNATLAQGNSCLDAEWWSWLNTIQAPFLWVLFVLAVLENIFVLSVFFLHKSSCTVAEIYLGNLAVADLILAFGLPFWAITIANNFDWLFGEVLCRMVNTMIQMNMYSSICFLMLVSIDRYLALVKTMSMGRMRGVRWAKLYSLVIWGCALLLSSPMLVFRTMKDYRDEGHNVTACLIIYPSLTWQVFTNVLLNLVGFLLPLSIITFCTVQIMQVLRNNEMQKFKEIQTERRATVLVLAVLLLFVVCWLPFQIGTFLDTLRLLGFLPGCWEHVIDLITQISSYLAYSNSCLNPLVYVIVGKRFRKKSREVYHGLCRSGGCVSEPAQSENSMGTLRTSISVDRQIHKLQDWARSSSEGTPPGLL
Description: ^3 H-Bradykinin Receptor Binding (crude guinea pig ileum membrane). The conditions noted are these: ^3 H-Bradykinin 0.06 nM, room temperature, 60 minutes, read-out: Inhibition of ^3 H-Bradykinin binding IC50. As for the experimental part: ^3 H-Bradykinin Receptor Binding
(a) Crude Ileum Membrane Preparation
Male Hartly strain guinea pigs were sacrificed by decapitation. The ileum was removed and homogenized in buffer (50 mM 2-[[tris(hydroxymethyl)methyl]amino]-1-ethanesulfonic acid (TES), 1 mM 1,10-phenanthroline pH 6.8). The homogenate was centrifuged (1000×g,20 minutes) to remove tissue clumps and the supernatant was centrifuges (100,000×g, 60 minutes) to yield a pellet. The pellet was resuspended in buffer (50 mM TES, 1 mM 1,10-phenanthroline, 140 mg/l bacitracin, 1 mM dithiothreiol, 0.1% bovine serum albumin pH 6.8) and homogenized with a glass-teflon homogenizer to yield suspension which was referred to as crude membrane suspension. The obtained membrane suspension was stored at -80° C. until use.
(b) ^3 H-Bradykinin Binding to the Membrane
The frozen crude membrane suspension was thawed. In binding assays, ^3 H-Bradykinin (0.06 nM) and drug were incubated with 50 μl of the membrane suspension at room temperature for 60 minutes in a final volume of 250 μl. Separation of receptor-bound from free ^3 H-Bradykinin is achieved by immediate filtration under vacuum and washed three times with 5 ml of ice-cold buffer (50 mM Tris-HCl pH 7.5). Non-specific binding was defined as binding in the presence of 0.1 μM Bradykinin. The radioactivity retained on rinsed filters was determined by a liquid-scintillation counter.

Molecules are shown by their SMILES. Where a name gives a salt, the structure may show the parent alone.

For `CCOC(=O)c1ccc(C=CC(=O)NCC(=O)N(C)c2ccc(Cl)c(COc3cccc4c(-n5ccnc5)cc(C)nc34)c2Cl)cc1` [17-(1), 8-[2,6-Dichloro-3-[N-(4-ethoxycarbonylcinnamoylglycyl)-N-methylamino]benzyloxy]-4-(imidazol-1-yl)-2-methylquinoline], the IC50 is 3.9 nM. The result for `Cc1cc(-n2cncn2)c2cccc(OCc3c(Cl)ccc(N(C)C(=O)CNC(=O)C=Cc4ccc(C(=O)N(C)C)cc4)c3Cl)c2n1` [12 (dihydrochloride), 8-[2,6-Dichloro-3-[N-methyl-N-[4-(dimethylcarbamoyl)cinnamoylglycyl]amino]benzyloxy]-2-methyl-4-(1,2,4-triazol-1-yl)quinoline] reads 9.1 nM. As for `Cc1cc(-n2ccnc2)c2cccc(OCc3c(Cl)ccc(N(C)C(=O)CNC(=O)Nc4cccc(C(=O)Nc5ccncc5)c4)c3Cl)c2n1` [3 (trihydrochloride), 8-[2,6-dichloro-3-[N-methyl-N-[N'-[3-[N-(4-pyridyl)carbamoyl]phenyl]ureidoacetyl]amino]benzyloxy]-4-(imidazol-1-yl)-2-methylquinoline], the figure is 6.6 nM; as for `Cc1cc(-n2ccnc2)c2cccc(OCc3c(Cl)ccc(N(C)C(=O)CNC(=O)C=Cc4ccc(C(=O)NCc5ccccn5)cc4)c3Cl)c2n1` [2-(3) (trihydrochloride), 8-[2,6-Dichloro-3-[N-methyl-N-[4-[N-(2-pyridylmethyl)carbamoyl]cinnamoylglycyl]amino]benzyloxy]-4-(imidazol-1-yl)-2-methylquinoline], 4.5 nM; as for `Cc1cc(-n2cccn2)c2cccc(OCc3c(Cl)ccc(N(C)C(=O)CNC(=O)C=Cc4ccc(C(=O)N(C)C)cc4)c3Cl)c2n1` [11-(4) (dihydrochloride), 8-[2,6-Dichloro-3-[N-methyl-N-[4-(dimethylcarbamoyl)cinnamoylglycyl]amino]benzyloxy]-2-methyl-4-(pyrazol-1-yl)quinoline], 3.3 nM.
